Patent US20170268001A1, “RNAS WITH TUMOR RADIO/CHEMO-SENSITIZING AND IMMUNOMODULATORY PROPERTIES AND METHODS OF THEIR PREPARATION AND APPLICATION” (THE UNIVERSITY OF CHICAGO, priority 2016, published 2017)

Key:
MC38 tumors [1] = assay: MC38 tumor growth after local radiation (20Gy); assay type: in vivo, mouse
Description: 1×10^6 MC38 tumor cells were subcutaneously injected into the flank of mice.
(§1) Tumor volumes were measured along three orthogonal axes (a, b, and c) and calculated as tumor volume=abc/2. Tumors were allowed to grow for 9-10 days and treated by local radiation (Deng et al., 2014). Briefly, the body was protected with a lead cover and the tumor was exposed, allowing local radiation. Tumors were irradiated using RS-2000 Biological Irradiator (RAD SOURCE) at the dose of 20Gy with 160 kV and 25 mA. For type I IFN blockade experiments, 200 μg anti-IFAR1 mAb was intratumorally injected on day 0 and 2 after radiation. For HMGB-1 blockade experiments, 200 μg anti-HMGB-1 mAb (clone 3B1, generated by inventors) was administered i.p. on day 0 and 3 after radiation. For CD8^+ T cell depletion experiments, 300 μg anti-CD8 mAb (Clone 2.43, BioXCell) was delivered 5 times by i.p. injection every three days starting one day before radiation. For exogenous IFN-β treatment experiments, 1×10^10 viral particles of Ad-IFN-β (Burnette, B., et al., The Efficacy of Radiotherapy Relies upon Induction of Type I Interferon-Dependent Innate and Adaptive Immunity, Cancer Res Apr. 1, 2011 71; 2488; (doi: 10.1158/0008-5472.CAN-10-2820)) were intratumorally administered on day 2 after radiation. Ad-null was used as negative control. […]

MC38 tumors [2] = assay: ELISPOT of IFNγ-secreting tumor-specific CD8+ T cells from tumor DLNs; assay type: in vivo, mouse
Description: as §1

BMDCs = assay: BMDC cross-priming of CD8+ T cells with irradiated tumor cells (ELISPOT); assay type: cell-based, mouse; details: IFN-β 10 ng/ml in co-culture; DMXAA 100 μg/ml, 3 h
Description: Single-cell suspensions of bone marrow cells were obtained from C57BL/6J, STING^−/− and IRF3^−/− mice. Bone marrow from cGAS^−/− mice was kindly provided by Dr. Zhijian J. Chen of University of Texas Southwestern Medical Center, Dallas. The cells were placed in 10 cm petri dish and cultured in RPMI-1640 medium containing 10% fetal bovine serum ([…]), supplemented with 20 ng/ml GM-CSF. Fresh media with GM-CSF was added into culture on day 3. BMDCs (bone marrow-derived dendritic cells) were harvest for stimulation assay on day 7. 8×10^6 MC38-SIY^hi cells were plated into 10 cm cell culture dishes overnight, and then pretreated with 40Gy and incubated for 5 hours. BMDCs were added and co-cultured with MC38-SIY″ cells at the ratio of 1:1 in the presence of fresh GM-CSF for additional 8 hours. Subsequently purified CD11c^+ cells with EasySep™ Mouse CD11c Positive Selection Kit II ([…]) were incubated with isolated CD8^+ T cells from naive 2C mice for three days. For the bypassing assay, 10 ng/ml murine IFN-β was added in the co-culture of BMDCs and tumor cells, or 100 μg/ml DMXAA was added into isolated CD11c^+ cells with additional 3 h incubation. For IFN-β detection, BMDCs were co-cultured with tumor cells at the ratio of 1:1 for additional 8 hours, and 1×10^6 cells/ml purified CD11c^+ cells were seed into 96-well plates for 48 hours. […]

[3] = system: RIG-I^−/− and WT MEFs; shRIG-I D54 and HCT116 tumor cells; assay: Caspase 3/7 activity in response to chemotherapy drugs with or without RIG-I; assay type: cell-based; details: increasing doses of drug
[4] = biological target: T1, RIG-I (DDX58), full-length (Homo sapiens) (UniProt O95786); assay: pulldown; details: CLIP-qPCR, enrichment in RIG-I complexes from irradiated (6 Gy) vs non-irradiated HEK293; also enriched in HCT116
T1 sequence: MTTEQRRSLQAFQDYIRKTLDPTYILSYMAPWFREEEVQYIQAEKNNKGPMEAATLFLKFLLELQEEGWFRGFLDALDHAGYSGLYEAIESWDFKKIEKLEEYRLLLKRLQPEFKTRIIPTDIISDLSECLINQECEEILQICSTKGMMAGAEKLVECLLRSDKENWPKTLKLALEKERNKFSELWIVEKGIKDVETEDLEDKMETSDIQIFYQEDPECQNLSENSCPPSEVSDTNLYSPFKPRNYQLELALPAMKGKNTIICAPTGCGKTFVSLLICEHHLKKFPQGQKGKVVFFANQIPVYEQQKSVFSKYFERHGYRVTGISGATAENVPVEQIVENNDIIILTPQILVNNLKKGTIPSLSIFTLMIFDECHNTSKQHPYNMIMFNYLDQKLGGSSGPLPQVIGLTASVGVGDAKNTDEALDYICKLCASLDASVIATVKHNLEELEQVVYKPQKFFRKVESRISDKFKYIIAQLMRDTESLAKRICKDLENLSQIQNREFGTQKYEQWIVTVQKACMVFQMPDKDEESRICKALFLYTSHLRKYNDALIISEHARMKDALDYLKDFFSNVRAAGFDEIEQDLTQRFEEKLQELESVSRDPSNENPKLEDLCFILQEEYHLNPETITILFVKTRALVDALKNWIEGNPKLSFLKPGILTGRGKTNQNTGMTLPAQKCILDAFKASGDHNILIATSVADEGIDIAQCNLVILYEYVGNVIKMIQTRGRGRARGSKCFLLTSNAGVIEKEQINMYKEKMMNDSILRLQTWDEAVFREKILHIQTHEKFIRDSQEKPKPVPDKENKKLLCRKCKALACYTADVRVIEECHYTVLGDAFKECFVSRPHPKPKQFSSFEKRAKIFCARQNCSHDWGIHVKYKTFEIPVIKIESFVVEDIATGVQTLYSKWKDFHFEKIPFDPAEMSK

RIG-I = biological target: T2, RIG-I (Homo sapiens, UniProt O95786); assay: HEK293 IFN-beta promoter dual luciferase reporter, RNA stimulation; assay type: cell-based; details: 1 μg synthetic oligonucleotide, 24 hour stimulation
T2 construct: HEK293 cells overexpressing either the full length RIG-I; host or cells: HEK293; HCT116 also for the qRT-PCR validation
T2 sequence (O95786 1-925): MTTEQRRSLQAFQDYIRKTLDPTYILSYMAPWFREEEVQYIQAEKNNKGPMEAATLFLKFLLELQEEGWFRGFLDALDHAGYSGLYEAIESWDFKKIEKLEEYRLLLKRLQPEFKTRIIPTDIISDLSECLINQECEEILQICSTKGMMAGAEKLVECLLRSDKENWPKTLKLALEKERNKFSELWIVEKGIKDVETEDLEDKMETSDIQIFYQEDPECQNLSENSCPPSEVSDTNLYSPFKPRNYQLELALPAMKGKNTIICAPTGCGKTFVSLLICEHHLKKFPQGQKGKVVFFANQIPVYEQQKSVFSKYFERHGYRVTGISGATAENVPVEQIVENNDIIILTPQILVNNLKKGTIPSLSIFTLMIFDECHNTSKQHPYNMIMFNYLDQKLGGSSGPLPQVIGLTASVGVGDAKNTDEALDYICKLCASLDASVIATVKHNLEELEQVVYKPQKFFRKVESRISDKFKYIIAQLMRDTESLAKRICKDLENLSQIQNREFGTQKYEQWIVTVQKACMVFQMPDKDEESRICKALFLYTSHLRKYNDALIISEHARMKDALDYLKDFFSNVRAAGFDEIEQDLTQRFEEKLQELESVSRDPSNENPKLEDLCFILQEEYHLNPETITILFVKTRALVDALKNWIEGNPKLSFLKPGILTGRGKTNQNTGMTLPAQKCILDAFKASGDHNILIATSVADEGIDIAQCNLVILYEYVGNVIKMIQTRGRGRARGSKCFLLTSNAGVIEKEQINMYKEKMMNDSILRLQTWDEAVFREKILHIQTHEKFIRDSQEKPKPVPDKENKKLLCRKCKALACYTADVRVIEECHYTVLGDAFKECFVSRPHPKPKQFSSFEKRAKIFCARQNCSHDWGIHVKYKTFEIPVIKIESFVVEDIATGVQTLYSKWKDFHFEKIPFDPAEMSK
Description: We also used reporter HEK293 cells as simple technique to evaluate ability of the given RNA to stimulate IFN-beta production in preliminary in vitro experiments. Technically this was performed as follows: RNA stimulation of HEK293 IFN-beta reporter cells HEK293 cells were seeded in a 24-well plate overnight at a density of 1.5×10^5 cells/ml (75,000 cells/well). Cells were co-transfected with 100 ng of plasmid construct (pCAGGS empty vector, pCAGGS-RIG-I full-length, pCAGGS-RIG-I helicase-RD mutant construct, and […] mutant construct), together with 80 ng of a firefly luciferase reporter gene driven by an IFN-beta promoter and 20 ng of a Renilla luciferase (pRL-null) transfection control. Transfections were performed using a cationic lipid agent, Fugene HD (Promega), at a 3:1 lipid:DNA ratio. Twenty-four hours post-transfection, cells were then stimulated with 1 μg RNA* mixed with Fugene HD at 2:1 lipid: RNA ratio for 24 hours. 20 μl cell lysates were collected in opaque 96-well plates and analyzed for IFN-beta-luciferase and Renilla activity using a BioTek Synergy HT plate reader. The transfection efficiency across different wells was normalized by dividing the IFN-beta luciferase activity with the Renilla activity. All values were further normalized to the unstimulated controls in cells transfected with the empty vector. All pCAGGS RIG-I constructs used in this study were generous gifts from Dr. Jenish Patel and Dr. Adolfo Garcia-Sastre of The Icahn School of Medicine at Mount Sinai in New York City. Synthetic RNA comprised of various stem loop regions of the human U1 snRNA were purchased from IDT Oligos as reported in (Bernard et al., 2012). U1 stem loop I sequence: [NT] ID NO:15); U1 stem loop II sequence: [NT] ID NO:16); U1 stem loop III sequence: [NT] ID NO:17); U1 stem loop IV sequence: [NT] ID NO:18); U1 stem loops I and II sequence: [NT] ID NO:19); U1 stem loops II and III sequence: [NT] ID NO:20). In vitro transcribed U1 RNA stimulation: Full length U1 (pT7U1) plasmid was generously provided by Dr. Joan Steitz (Yale School of Medicine, Yale University). […]

Nc1nc2c(ncn2[C@@H]2O[C@@H]3COP(=O)(O)O[C@H]4[C@@H](O)[C@H](n5cnc6c(N)ncnc65)O[C@@H]4COP(=O)(O)O[C@@H]2[C@@H]3O)c(=O)[nH]1 [2′3′-cGAMP, cyclic [G(2′,5′)pA(3′,5′)p]]
synergy with radiation (MC38 tumors [1]; STING^−/− mice): abrogated | tumor burden, combination with radiation compared to either alone (MC38 tumors [1]; WT mice, 10 μg intratumorally on day 2 and 6 after 20Gy): effectively reduce tumor burden | number of tumor-specific IFN-γ-producing CD8+ T cells in DLNs (MC38 tumors [2]; combination with radiation vs radiation or 2′3′-cGAMP alone, WT mice): significantly increased | antitumor CD8+ T cell response induced by combination with radiation (MC38 tumors [2]; deficiency of STING in the host): dampened

Cc1ccc2c(=O)c3cccc(CC(=O)O)c3oc2c1C [DMXAA]
function of STING^−/− BMDCs (cross-priming) (BMDCs): fails to rescue | function of cGAS^−/− BMDCs (cross-priming) (BMDCs): restored

N.N.[Cl][Pt][Cl] [cisplatin]
caspase 3/7 activity in response to drug treatment, RIG-I absent or depleted vs control cells [3]: reduced caspase 3/7 activity

COc1cccc2c1C(=O)c1c(O)c3c(c(O)c1C2=O)C[C@@](O)(C(=O)CO)C[C@@H]3O[C@H]1C[C@H](N)[C@H](O)[C@H](C)O1 [doxorubicin]
caspase 3/7 activity in response to drug treatment, RIG-I absent or depleted vs control cells [3]: reduced caspase 3/7 activity

U1 snRNA (endogenous)
binding signal [4]: 6 fold

B1: SL II+III: synthetic RNA of U1 stem loops II and III, SEQ ID NO:20 (nucleic acid)
chain: GGGCGAGGCTTATCCATTGCACTCCGGATGTGCTGACCCCTGCGATTTCCCCAAATGTGGGAAACTCGACTGC
modifications: listed as DNA, chemistry not given here
IFN-beta response (reporter activity in HEK293; IFN-b in MEF supernatant) (RIG-I): potent inducers of IFN-beta response

B2: SL I+II: synthetic RNA of U1 stem loops I and II, SEQ ID NO:19 (nucleic acid)
chain: GGGAGATACCATGATCACGAAGGTGGTTTTCCCAGGGCGAGGCTTATCCATTGCACTCCGGATGTGCTGACCCC
modifications: listed as DNA, chemistry not given here
IFN-beta response (reporter activity in HEK293; IFN-b in MEF supernatant) (RIG-I): potent inducers of IFN-beta response
